Source: patent publication US9884851B2, “Heterocycle-bisamide inhibitors of scavenger receptor BI” (THE BROAD INSTITUTE, INC., priority 2012, dated 2018)
Numbering of substitutions follows the chain as printed. Values joined by “and” are separate entries in the source; they are usually repeats but may differ in a detail not shown here. Equal entries are not always repeated.

Assays:
murine SR-BI, isoform 1 = target: T1, murine SR-BI, isoform 1 (Mus musculus, UniProt Q61009); assay: DiI-HDL uptake assay (primary assay); format: cell-based; settings: for IC50: ldlA[mSR-BI] cells, 3 hours with compound
T1 construct: expressed in transfected cells; host or cells: ldlA[mSR-BI], Chinese hamster ovary (CHO) cells lacking LDL receptor (Krieger Laboratory)
T1 sequence (Q61009 1-509): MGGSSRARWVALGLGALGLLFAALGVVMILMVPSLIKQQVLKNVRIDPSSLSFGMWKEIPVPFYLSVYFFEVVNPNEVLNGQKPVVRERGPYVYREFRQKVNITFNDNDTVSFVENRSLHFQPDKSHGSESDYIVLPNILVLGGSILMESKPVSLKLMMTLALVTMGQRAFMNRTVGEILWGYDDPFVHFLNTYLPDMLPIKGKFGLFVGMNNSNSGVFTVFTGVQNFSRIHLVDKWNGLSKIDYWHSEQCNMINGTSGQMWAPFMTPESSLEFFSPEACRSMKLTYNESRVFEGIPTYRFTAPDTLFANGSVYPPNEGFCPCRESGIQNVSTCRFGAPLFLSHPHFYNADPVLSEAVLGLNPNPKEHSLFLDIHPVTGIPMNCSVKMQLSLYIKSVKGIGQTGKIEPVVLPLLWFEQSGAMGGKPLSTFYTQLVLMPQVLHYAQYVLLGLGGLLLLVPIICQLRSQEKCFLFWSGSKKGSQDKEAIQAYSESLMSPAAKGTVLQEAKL
Experimental: The following cell lines were used in this study: • ldlA[mSR-BI] is a Chinese hamster ovary (CHO) cell line that overexpresses murine SR-BI, isoform 1 (NP_058021) and was obtained from the (Krieger Laboratory). This cell line was used for the primary assay and several secondary assays. […] Assays DiI-HDL Uptake Assay (Primary Assay AID Nos. 488896, 493194, 540354 588392, 588553, 588548, 588754, 588828, 588833)
ldlA[mSR-BI] cells were plated into 384-well plates at 30 μl per well and incubated overnight. As a measurable surrogate for cholesterol uptake, human HDL particles were treated with the lipophilic fluorescent dye DiI and exposed to ldlA[mSR-BI] cells in lipoprotein-free media (Ham's F12/0.5% fatty acid-free Bovine Serum Albumin (BSA)/25 mM HEPES pH 7.4 plus 10 μg protein/ml DiI-HDL). Cells took up the DiI via SR-BI over 3 hours in the presence of compound. After significant uptake of the DiI, the cells became fluorescent. The level of fluorescence correlates with the amount of DiI uptake and can be measured with a standard plate reader (here a PerkinElmer EnVision plate reader was used). The uptake of lipid (represented by DiI) was inhibited by the positive control compound BLT-1 or with an excess of HDL untreated with DiI. Primary HTS data were analyzed in Genedata Screener Assay Analyzer, and were normalized against DMSO and the positive control (1 μM BLT-1). For the HTS, the average of two replicates was used to rank order activity and to choose compounds for retests. For dose studies, percent (%) activity was determined for each concentration and the concentration response curves (CRCs) were generated with Genedata Condeseo.
To identify novel inhibitors, SR-BI-mediated lipid uptake was measured in an engineered cell line that minimized potential uptake by other mechanisms, including via the LDL receptor (1). ldlA[mSR-BI] cells overexpress murine isoform 1 and selectively take up HDL lipid at similar levels as “has been reported for cultured mouse adrenal cells, perfused organs, and liver, adrenal gland and ovary in vivo” (1). This primary cell-based assay was used in a pilot screen that identified BLTs 1 through 5. The assay was slightly modified from the original protocol of Nieland et al. to increase throughput and to ease automation procedures.
Briefly, the plate reader was switched to a Perkin-Elmer EnVision, several washing steps were eliminated, and the cell number per well was reduced without impacting the robustness of the assay. The automated assay was first tested with a validation set of 2,240 compounds. These compounds were tested in duplicate with in-plate neutral (DMSO) and positive (1 μM BLT-1) controls. Robustness, reproducibility, and variability parameters were analyzed before initiating the full HTS. The HTS was run over the course of several weeks. Data were normalized relative to controls, and plate patterns were corrected using a multiplicative algorithm in Genedata Screener Assay Analyzer. For each compound, the average of the two replicates was determined and used for subsequent analysis.

[1] = target: T2, murine SR-BI with the C384S mutation (Mus musculus, UniProt Q61009, C384S); assay: Mutant SR-BI cholesterol efflux assay; format: cell-based; settings: Cys384 converted to serine
T2 construct: expressed in transfected cells; host or cells: CHO cell line lacking LDL receptors, overexpressing C384S SR-BI
T2 sequence (Q61009 1-509 C384S): T1 sequence (Q61009 1-509) with C384S
Experimental: Mutant SR-BI Cholesterol Efflux Assay (SA 10: AID Nos. 588843, 602138)
BLT-1 is known to interact at cysteine 384 of SR-BI (16). […] This assay is used to determine if the compounds work in a similar fashion to BLT-1 and require Cys384 to alter the efflux of FC to HDL.
On Day 0, 50,000 cells expressing murine SR-BI with the C384S mutation per well were plated in 24-well plates. On the following day, the media was removed and [^3H]cholesterol in lipoprotein-deficient media was added. On Day 1, the medium was replaced with Ham's F12 medium supplemented with 10% bovine lipoprotein deficient serum, 1 μCi/ml [1,2-^3H]cholesterol (40-60 Ci/mmol). On Day 3, the cells were washed to remove serum and incubated in Ham's F12 plus 1% fatty acid-free BSA. On Day 4, the cells were washed and pretreated with compounds for 1 hour. Subsequently, the cells were incubated for an additional 2 hours with the same concentrations of small molecules and with unlabeled HDL (final HDL concentration of 100 μg protein/ml). […] The amount of [^3H]cholesterol in the medium and within cells was determined using liquid scintillation counting. Total cellular [^3H]cholesterol was calculated as the sum of the radioactivity in the efflux medium plus the radioactivity in the cells and was used to calculate the [^3H]cholesterol efflux (percent of total [^3H]cholesterol released into the medium).

## CCCCCCC1CCCC1=NNC(N)=S (stereo not shown) [BLT-1, reference compound]
Murine SR-BI, isoform 1; 1 μM, positive control
  reduction in signal in primary HTS: > 2.2 fold
Murine SR-BI, isoform 1
  IC50: 10.8 nM
[1]
  efflux of cholesterol in C384S mutant background (in words): cannot reduce uptake of HDL or efflux of cholesterol

## C[C@H](C(=O)NC1CCCC1)N(C(=O)Cn1nnc(-c2ccc3c(c2)OCO3)n1)C1CCCCC1 [ML279, (R)-2-(2-(5-(Benzo[d][1,3]dioxol-5-yl)-2H-tetrazol-2-yl)-N-cyclohexylacetamido)-N-cyclopentylpropanamide]
Murine SR-BI, isoform 1
  selectivity: greater than 1000
  IC50: 16 nM and 16.2 nM
Murine SR-BI, isoform 1; AID No. 588828
  higher potency than ITX-5061: approximately 15 fold
[1]
  efflux of cholesterol in C384S mutant background (in words): can reduce uptake and efflux in the mutant background
